These results are taken from patent US9221802B2, “Arylethynyl derivatives” (Hoffmann-La Roche Inc., priority 2012, dated 2015).

Structures are written as SMILES. Where two headings read alike, the source gives them in different places.

Data set [1] is described as follows: Glutathione (GSH) addition assay after metabolic activation. The note with it: glutathione adduct detection after metabolic activation. Details: key: Samples for which the mass of a covalent adduct to a reactive metabolite was clearly detected are indicated as FLAG (positive); Compounds for which no adduct was detected are designated NO FLAG (negative). The class given is in vitro ADME, human. On the procedure:
The assay conditions for the detection of glutathione conjugates follow the procedure described by C. M. Dieckhaus et al. in Chem. Res. Toxicol., 18, 630-638 (2005). Samples for which the mass of a covalent adduct to a reactive metabolite was clearly detected are indicated as FLAG (positive). Compounds for which no adduct was detected are designated NO FLAG (negative).
The “gold standard” CVB (covalent binding) assay, which detects the formation of covalent adducts by incubation of test compounds with human liver microsomes (HLM) needs to be conducted with 14C-labelled material. This is not appropriate for routine screening purposes. The glutathione assay after metabolic activation (see assay description) is appropriate for routine screening, and compounds that show significant activity in this assay are very likely to show activity in the CVB assay. […] Generally speaking, compounds of the present invention therefore have a clear advantage with respect to drug safety due to their much less pronounced tendency to form reactive metabolites compared to structurally similar compounds of prior art.

In another data set the target is human mGlu5a receptor (Homo sapiens (Human), UniProt P41594). In words: Intracellular Ca2+ mobilization assay. Format: cell-based. The conditions noted are these: for EC50: HEK-293 cells expressing human mGlu5a; for Emax: maximal response in % of maximal stimulatory effect of saturating L-glutamate, read-out: Efficacy [%]. The protocol:
A monoclonal HEK-293 cell line stably transfected with a cDNA encoding for the human mGlu5a receptor was generated; for the work with mGlu5 Positive Allosteric Modulators (PAMs), a cell line with low receptor expression levels and low constitutive receptor activity was selected to allow the differentiation of agonistic versus PAM activity. Cells were cultured according to standard protocols (Freshney, 2000) in Dulbecco's Modified Eagle Medium with high glucose supplemented with 1 mM glutamine, 10% (vol/vol) heat-inactivated bovine calf serum, Penicillin/Streptomycin, 50 μg/ml hygromycin and 15 μg/ml blasticidin (all cell culture reagents and antibiotics from Invitrogen, Basel, Switzerland).
About 24 hrs before an experiment, 5×10^4 cells/well were seeded in poly-D-lysine coated, black/clear-bottomed 96-well plates. The cells were loaded with 2.5 μM Fluo-4AM in loading buffer (1×HBSS, 20 mM HEPES) for 1 hr at 37° C. and washed five times with loading buffer. The cells were transferred into a Functional Drug Screening System 7000 (Hamamatsu, Paris, France), and 11 half logarithmic serial dilutions of test compound at 37° C. were added and the cells were incubated for 10-30 min. with on-line recording of fluorescence. Following this pre-incubation step, the agonist L-glutamate was added to the cells at a concentration corresponding to EC20 (typically around 80 μM) with on-line recording of fluorescence; in order to account for day-to-day variations in the responsiveness of cells, the EC20 of glutamate was determined immediately ahead of each experiment by recording of a full dose-response curve of glutamate. Responses were measured as peak increase in fluorescence minus basal (i.e. fluorescence without addition of L-glutamate), normalized to the maximal stimulatory effect obtained with saturating concentrations of L-glutamate. Graphs were plotted with the % maximal stimulatory using XLfit, a curve fitting program that iteratively plots the data using Levenburg Marquardt algorithm. The single site competition analysis equation used was y=A+((B−A)/(1+((x/C)D))), where y is the % maximal stimulatory effect, A is the minimum y, B is the maximum y, C is the EC50, x is the log 10 of the concentration of the competing compound and D is the slope of the curve (the Hill Coefficient). From these curves the EC50 (concentration at which half maximal stimulation was achieved), the Hill coefficient as well as the maximal response (=Efficacy) in % of the maximal stimulatory effect obtained with saturating concentrations of L-glutamate were calculated.
A depression of the signal observed after addition of the EC20 concentration of L-glutamate was indicative of an inhibitory activity of the test compound.
The Intracellular Ca^2+ mobilization assay as described before was used for determination of EC50 values.

[2] abbreviates: PAM activity in presence of EC20 L-glutamate, read-out: Ec50.
[3] abbreviates: PAM activity, read-out: EC50 (nM) mGlu5 PAM.

The term EC50 denotes the concentration at which the effect is half-maximal.

human mGlu5a receptor, sequence (P41594 other isoform, or with tags, fused parts or gaps): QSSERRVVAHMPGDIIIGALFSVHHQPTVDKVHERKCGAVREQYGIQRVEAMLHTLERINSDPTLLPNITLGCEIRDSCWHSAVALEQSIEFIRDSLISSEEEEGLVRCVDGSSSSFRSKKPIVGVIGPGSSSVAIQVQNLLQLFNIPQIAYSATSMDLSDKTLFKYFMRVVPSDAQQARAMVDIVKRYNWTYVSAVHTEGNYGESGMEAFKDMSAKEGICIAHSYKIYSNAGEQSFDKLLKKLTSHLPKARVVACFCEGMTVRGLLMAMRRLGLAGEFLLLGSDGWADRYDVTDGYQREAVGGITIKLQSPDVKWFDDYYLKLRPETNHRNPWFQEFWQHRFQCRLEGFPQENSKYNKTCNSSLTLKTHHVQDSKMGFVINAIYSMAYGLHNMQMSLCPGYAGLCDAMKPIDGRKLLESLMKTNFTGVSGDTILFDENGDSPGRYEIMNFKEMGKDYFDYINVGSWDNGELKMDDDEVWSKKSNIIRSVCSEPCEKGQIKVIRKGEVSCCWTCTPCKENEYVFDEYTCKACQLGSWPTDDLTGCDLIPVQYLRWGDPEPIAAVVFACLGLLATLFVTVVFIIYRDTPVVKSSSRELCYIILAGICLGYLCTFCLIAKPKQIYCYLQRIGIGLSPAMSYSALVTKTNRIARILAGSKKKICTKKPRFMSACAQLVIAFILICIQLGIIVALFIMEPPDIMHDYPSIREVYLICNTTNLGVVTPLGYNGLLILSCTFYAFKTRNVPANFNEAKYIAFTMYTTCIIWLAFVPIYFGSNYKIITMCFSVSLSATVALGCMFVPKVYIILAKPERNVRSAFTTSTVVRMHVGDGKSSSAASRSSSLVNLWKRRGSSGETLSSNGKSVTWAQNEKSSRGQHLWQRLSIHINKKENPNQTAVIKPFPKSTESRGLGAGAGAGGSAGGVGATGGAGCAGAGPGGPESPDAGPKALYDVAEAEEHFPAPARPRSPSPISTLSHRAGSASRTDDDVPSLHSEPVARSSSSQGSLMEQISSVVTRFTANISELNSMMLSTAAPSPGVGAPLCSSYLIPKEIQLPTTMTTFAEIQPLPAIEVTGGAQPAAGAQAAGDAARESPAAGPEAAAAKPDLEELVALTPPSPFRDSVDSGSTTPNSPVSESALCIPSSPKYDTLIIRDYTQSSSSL

`O=C1OC[C@H]2CCC[C@H]2N1c1ccc(C#Cc2ccccc2)cn1` [Ex. 1, (4aS,7aR)-1-(5-Phenylethynyl-pyridin-2-yl)-hexahydro-cyclopenta[d][1,3]oxazin-2-one]: the “GSH [HLM]” value in data set [1] is recorded as “NO FLAG”. Further, the 50% effective concentration (EC50) on human mGlu5a receptor (setting [2]) and on human mGlu5a receptor (setting [3]) was 22 nM each time. Further, the Emax on human mGlu5a receptor worked out at 38%.
Take `O=C1OC[C@H]2CCC[C@H]2N1c1ccc(C#Cc2cccc(F)c2)cn1` [Ex. 2, (4aS,7aR)-1-[5-(3-Fluorophenylethynyl)-pyridin-2-yl]-hexahydro-cyclopenta[d][1,3]oxazin-2-one]: the “GSH [HLM]” value in data set [1] is given as “NO FLAG”. Besides, the EC50 on human mGlu5a receptor (setting [2]) and on human mGlu5a receptor (setting [3]) was 10 nM in each case. Besides, on human mGlu5a receptor, the Emax came out at 43%.
For `O=C1OC[C@H]2CCC[C@H]2N1c1ccc(C#Cc2ccc(F)cc2)cn1` [Ex. 3, (4aS,7aR)-1-[5-(4-Fluorophenylethynyl)-pyridin-2-yl]-hexahydro-cyclopenta[d][1,3]oxazin-2-one], the “GSH [HLM]” value in data set [1] is “NO FLAG”. Besides, the concentration giving a half-maximal response (EC50) at human mGlu5a receptor (setting [2]) and at human mGlu5a receptor (setting [3]) was 10 nM throughout. In addition, the Emax on human mGlu5a receptor is 40%.
With `O=C1OC[C@H]2CCC[C@H]2N1c1ccc(C#Cc2cc(F)ccc2F)cn1` [Ex. 4, (4aS,7aR)-1-[5-(2,5-Difluorophenylethynyl)-pyridin-2-yl]-hexahydro-cyclopenta[d]-[1,3]oxazin-2-one], the “GSH [HLM]” value in data set [1] was “NO FLAG”. Besides, the half-maximal effective concentration (EC50) at human mGlu5a receptor (setting [2]) and at human mGlu5a receptor (setting [3]) was 15 nM each time. For the same molecule, the Emax on human mGlu5a receptor turned out to be 35%.
Turning to `CC1(C)COC(=O)N(c2ccc(C#Cc3ccccc3)cn2)C1` [Ref. Ex. 20], the EC50 on human mGlu5a receptor (setting [2]) was found to be 27 nM. In addition, the Emax at human mGlu5a receptor amounted to 135%.
With `CC1(C)CCN(c2ccc(C#Cc3ccccc3)cn2)C(=O)O1` [Ref. Ex. 72], the “GSH [HLM]” value in data set [1] was “FLAG”. The half-maximal effective concentration (EC50) at human mGlu5a receptor (setting [2]) amounted to 10 nM. Moreover, the Emax at human mGlu5a receptor is 86%.
As to `CC1(C)CCN(c2ccc(C#Cc3cccc(F)c3)cn2)C(=O)O1` [Ref. Ex. 76], the “GSH [HLM]” value in data set [1] is “FLAG”. Also, the concentration for a half-maximal effect (EC50) at human mGlu5a receptor (setting [2]) was 13 nM. For the same molecule, on human mGlu5a receptor, the Emax stood at 124%.
On to `CC1(C)CCN(c2ccc(C#Cc3ccc(F)cc3)cn2)C(=O)O1` [Ref. Ex. 79], for which the “GSH [HLM]” value in data set [1] is listed as “FLAG”. For the same molecule, at human mGlu5a receptor (setting [2]), the half-maximal effective concentration (EC50) is 22 nM. On human mGlu5a receptor, the Emax came out at 85%.
For the molecule `CC1(C)CCN(c2ccc(C#Cc3cc(F)ccc3F)cn2)C(=O)O1` [Ref. Ex. 81], the “GSH [HLM]” value in data set [1] is on record as “FLAG”. Further, the EC50 at human mGlu5a receptor (setting [2]) stood at 12 nM. For the same molecule, the Emax at human mGlu5a receptor worked out at 95%.
Regarding `O=C1O[C@H]2CCC[C@H]2CN1c1ccc(C#Cc2ccccc2)cn1` [Ref. Ex. 103], the “GSH [HLM]” value in data set [1] was “FLAG”. Also, at human mGlu5a receptor (setting [2]), the EC50 came to 27 nM. Moreover, at human mGlu5a receptor, the Emax is 123%.
